This is an account of results in article PMC12796986 (Journal of medicinal chemistry, 2025).

In this experiment the target is mpox resolvase (Mpr) (Monkeypox virus, UniProt A0A7H0DNC1). Put plainly: biochemical. Format: biochemical.
Sequence of mpox resolvase (Mpr) (A0A7H0DNC1 whole entry, looked up): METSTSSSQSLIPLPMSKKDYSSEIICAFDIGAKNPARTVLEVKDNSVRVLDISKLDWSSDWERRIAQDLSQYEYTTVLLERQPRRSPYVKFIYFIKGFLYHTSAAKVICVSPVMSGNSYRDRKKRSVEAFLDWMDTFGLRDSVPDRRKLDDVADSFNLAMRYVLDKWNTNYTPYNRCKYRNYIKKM

With “3-(5,8-dihydroxy-7-oxo-6-phenyl-7,8-dihydro-1,8-naphthyridin-3-yl) benzamide [4a-12]”, the “fluorescence quenching in the FRET assay” value was “fluorescence quenching”. Regarding `O=c1c(-c2ccccc2)c(O)c2cc(-c3ccc(-c4ccccc4)cc3)cnc2n1O` [4a-2, 6-([1,1’-biphenyl]-4-yl)-1,4-dihydroxy-3-phenyl-1,8-naphthyridin-2(1H)-one], it took 250 ± 10 nM to reach half-maximal inhibition (IC50).

On to `COc1ccc2cc(-c3cnc4c(c3)c(O)c(-c3ccccc3)c(=O)n4O)ccc2c1` [4a-4, 1,4-dihydroxy-6-(6-methoxynaphthalen-2-yl)-3-phenyl-1,8-naphthyridin-2(1H)-one], for which 970 ± 30 nM corresponded to half-maximal inhibition (IC50). `O=c1c(-c2ccccc2)c(O)c2cc(-c3ccccc3F)cnc2n1O` [4a-6, 6-(2-fluorophenyl)-1,4-dihydroxy-3-phenyl-1,8-naphthyridin-2(1H)-one]: half-maximal inhibition (IC50) required 1100 ± 100 nM. Consider `O=c1c(-c2ccccc2)c(O)c2cc(-c3ccc(C(F)(F)F)cc3)cnc2n1O` [4a-7, 1,4-dihydroxy-3-phenyl-6-(4-(trifluoromethyl)phenyl)-1,8-naphthyridin-2(1H)-one], for which the 50% inhibitory concentration (IC50) came out at 600 ± 100 nM. As for `CSc1ccc(-c2cnc3c(c2)c(O)c(-c2ccccc2)c(=O)n3O)cc1` [4a-8, 1,4-dihydroxy-6-(4-(methylthio)phenyl)-3-phenyl-1,8-naphthyridin-2(1H)-one], the IC50 was found to be 370 ± 30 nM.

In turn, `COc1ccc(OC)c(-c2cnc3c(c2)c(O)c(-c2ccccc2)c(=O)n3O)c1` [4a-9, 6-(2,5-dimethoxyphenyl)-1,4-dihydroxy-3-phenyl-1,8-naphthyridin-2(1H)-one] gave an IC50 of 1400 ± 100 nM. The same measure, in the same setting: the value for `O=c1c(-c2ccccc2)c(O)c2cc(-c3ccsc3)cnc2n1O` [4a-11, 1,4-dihydroxy-3-phenyl-6-(thiophen-3-yl)-1,8-naphthyridin-2(1H)-one] was 1300 ± 300 nM; that for `O=c1c(-c2ccccc2)c(O)c2cc(Br)cnc2n1O` [4a-14, 6-bromo-1,4-dihydroxy-3-phenyl-1,8-naphthyridin-2(1H)-one] was 7600 ± 100 nM; that for `O=c1c(-c2ccccc2)c(O)c2cc(-c3ccc(O)cc3)cnc2n1O` [4a-15, 1,4-dihydroxy-6-(4-hydroxyphenyl)-3-phenyl-1,8-naphthyridin-2(1H)-one] was 1500 ± 100 nM. For the molecule `Cc1ccc(-c2cnc3c(c2)c(O)c(-c2ccccc2)c(=O)n3O)cc1` [4a-16, 1,4-dihydroxy-3-phenyl-6-(p-tolyl)-1,8-naphthyridin-2(1H)-one], the 50% inhibitory concentration (IC50) came to 1900 ± 400 nM. On the same count and under the same terms, the value for `CSc1cccc(-c2cnc3c(c2)c(O)c(-c2ccccc2)c(=O)n3O)c1` [4a-17, 1,4-dihydroxy-6-(3-(methylthio)phenyl)-3-phenyl-1,8-naphthyridin-2(1H)-one] was 600 ± 100 nM.

In turn, `O=c1c(-c2ccccc2)c(O)c2cc(-c3ccc4c(c3)OCO4)cnc2n1O` [4a-19, 6-(benzo[d][1,3]dioxol-5-yl)-1,4-dihydroxy-3-phenyl-1,8-naphthyridin-2(1H)-one] displayed an IC50 of 1100 ± 100 nM. On the same count and under the same terms, the value for `N#Cc1ccc(-c2cnc3c(c2)c(O)c(-c2ccccc2)c(=O)n3O)cc1` [4a-20, 4-(5,8-dihydroxy-7-oxo-6-phenyl-7,8-dihydro-1,8-naphthyridin-3-yl) benzonitrile] was 1900 ± 200 nM; that for `NS(=O)(=O)c1ccc(-c2cnc3c(c2)c(O)c(-c2ccccc2)c(=O)n3O)cc1` [4a-21, 4-(5,8-dihydroxy-7-oxo-6-phenyl-7,8-dihydro-1,8-naphthyridin-3-yl)benzenesulfonamide] was 1500 ± 100 nM.

As for `O=c1c(-c2ccccc2)c(O)c2cc(-c3ccc(F)cc3F)cnc2n1O` [4a-22, 6-(2,4-difluorophenyl)-1,4-dihydroxy-3-phenyl-1,8-naphthyridin-2(1H)-one], the “fluorescence quenching in the FRET assay” value was “fluorescence quenching”.

Molecule `O=c1c(-c2ccccc2)c(O)c2cc(-c3ccc(C(F)(F)F)cc3C(F)(F)F)cnc2n1O` [4a-23, 6-(2,4-bis(trifluoromethyl)phenyl)-1,4-dihydroxy-3-phenyl-1,8-naphthyridin-2(1H)-one] displayed an IC50 of 2700 ± 400 nM.

For the molecule `O=c1c(-c2ccccc2)c(O)c2cc(-c3c(F)cc(F)cc3F)cnc2n1O` [4a-24, 1,4-dihydroxy-3-phenyl-6-(2,4,6-trifluorophenyl)-1,8-naphthyridin-2(1H)-one], the “fluorescence quenching in the FRET assay” value is reported as “fluorescence quenching”.

`O=c1c(-c2ccccc2)c(O)c2cc(-c3cccnc3)cnc2n1O` [4a-25, 1,4-dihydroxy-3-phenyl-6-(pyridin-3-yl)-1,8-naphthyridin-2(1H)-one] had an IC50 of 12000 ± 1000 nM.

The molecule `O=c1c(-c2ccccc2)c(O)c2cc(-c3cncnc3)cnc2n1O` [4a-26, 1,4-dihydroxy-3-phenyl-6-(pyrimidin-5-yl)-1,8-naphthyridin-2(1H)-one] came in with an IC50 of 15000 ± 1000 nM. Same read-out and setting: the result for `O=c1c(-c2ccccc2)c(O)c2cc(-c3ccco3)cnc2n1O` [4a-27, 6-(furan-2-yl)-1,4-dihydroxy-3-phenyl-1,8-naphthyridin-2(1H)-one] reads 4000 ± 200 nM.

As for `CC(=O)c1ccc(-c2cnc3c(c2)c(O)c(-c2ccccc2)c(=O)n3O)s1` [4a-28, 6-(5-acetylthiophen-2-yl)-1,4-dihydroxy-3-phenyl-1,8-naphthyridin-2(1H)-one], the “fluorescence quenching in the FRET assay” value was “fluorescence quenching”. With `O=c1c(-c2ccccc2)c(O)c2cc(-c3cnc4ccccc4c3)cnc2n1O` [4a-29, 1,4-dihydroxy-3-phenyl-6-(quinolin-3-yl)-1,8-naphthyridin-2(1H)-one], the “Mpr inhibition” value is on record as “did not inhibit Mpr”. In the case of `O=c1c(-c2ccccc2)c(O)c2cc(C3CC3)cnc2n1O` [4a-30, 6-cyclopropyl-1,4-dihydroxy-3-phenyl-1,8-naphthyridin-2(1H)-one], half-maximal inhibition (IC50) was put at 8000 ± 1000 nM. Still for that read-out and setting: the result for `O=c1c(-c2ccccc2)c(O)c2cccnc2n1O` [4a-31, 1,4-dihydroxy-3-phenyl-1,8-naphthyridin-2(1H)-one] reads 17000 ± 1000 nM; that for `CCc1c(O)c2cc(-c3cccc(-c4ccccc4)c3)cnc2n(O)c1=O` [4b-1, 6-([1,1’-biphenyl]-3-yl)-3-ethyl-1,4-dihydroxy-1,8-naphthyridin-2(1H)-one], 800 ± 30 nM; that for `CCc1c(O)c2cc(-c3ccc4cc(OC)ccc4c3)cnc2n(O)c1=O` [4b-4, 3-ethyl-1,4-dihydroxy-6-(6-methoxynaphthalen-2-yl)-1,8-naphthyridin-2(1H)-one], 1600 ± 300 nM. On the same count and under the same terms, the value for `CCc1c(O)c2cc(-c3ccccc3)cnc2n(O)c1=O` [4b-5, 3-ethyl-1,4-dihydroxy-6-phenyl-1,8-naphthyridin-2(1H)-one] was 5300 ± 200 nM. In turn, `CCc1c(O)c2cc(-c3ccccc3F)cnc2n(O)c1=O` [4b-6, 3-ethyl-6-(2-fluorophenyl)-1,4-dihydroxy-1,8-naphthyridin-2(1H)-one] displayed an IC50 of 2100 ± 900 nM. Consider `CCc1c(O)c2cc(-c3ccc(C(F)(F)F)cc3)cnc2n(O)c1=O` [4b-7, 3-ethyl-1,4-dihydroxy-6-(4-(trifluoromethyl)phenyl)-1,8-naphthyridin-2(1H)-one], for which half-maximal inhibition (IC50) required 2500 ± 100 nM.

With `CCc1c(O)c2cc(-c3ccc(SC)cc3)cnc2n(O)c1=O` [4b-8, 3-ethyl-1,4-dihydroxy-6-(4-(methylthio)phenyl)-1,8-naphthyridin-2(1H)-one], the IC50 was 700 ± 100 nM.

The molecule `CCc1c(O)c2cc(-c3cc(OC)ccc3OC)cnc2n(O)c1=O` [4b-9, 6-(2,5-dimethoxyphenyl)-3-ethyl-1,4-dihydroxy-1,8-naphthyridin-2(1H)-one] came in with an IC50 of 1500 ± 100 nM. This IC50 is about 2.1-fold higher than that of the molecule before. On the same count and under the same terms, the result for `CCc1c(O)c2cc(-c3ccc(OC)c(F)c3)cnc2n(O)c1=O` [4b-10, 3-ethyl-6-(3-fluoro-4-methoxyphenyl)-1,4-dihydroxy-1,8-naphthyridin-2(1H)-one] reads 5000 ± 1000 nM. On the same count and under the same terms, the value for `CCc1c(O)c2cc(-c3ccsc3)cnc2n(O)c1=O` [4b-11, 3-ethyl-1,4-dihydroxy-6-(thiophen-3-yl)-1,8-naphthyridin-2(1H)-one] was 3900 ± 100 nM. The same measure, in the same setting: the result for `O=c1cc(O)c2cc(-c3cccc(-c4ccccc4)c3)cnc2n1O` [4c-1, 6-([1,1’-biphenyl]-3-yl)-1,4-dihydroxy-1,8-naphthyridin-2(1H)-one] reads 120 ± 10 nM. With `O=c1cc(O)c2cc(-c3ccc(-c4ccccc4)cc3)cnc2n1O` [4c-2, 6-([1,1’-biphenyl]-4-yl)-1,4-dihydroxy-1,8-naphthyridin-2(1H)-one], the “fluorescence quenching in the FRET assay” value was “direct quenching of fluorophore”. The same measure, in the same setting: the result for `O=c1cc(O)c2cc(-c3ccc(Oc4ccccc4)cc3)cnc2n1O` [4c-3, 1,4-dihydroxy-6-(4-phenoxyphenyl)-1,8-naphthyridin-2(1H)-one] reads “direct quenching of fluorophore”. Take `COc1ccc2cc(-c3cnc4c(c3)c(O)cc(=O)n4O)ccc2c1` [4c-4, 1,4-dihydroxy-6-(6-methoxynaphthalen-2-yl)-1,8-naphthyridin-2(1H)-one]: half-maximal inhibition (IC50) was put at 240 ± 30 nM. The same measure, in the same setting: the value for `O=c1cc(O)c2cc(-c3ccccc3)cnc2n1O` [4c-5, 1,4-dihydroxy-6-phenyl-1,8-naphthyridin-2(1H)-one] was 1800 ± 10 nM; that for `O=c1cc(O)c2cc(-c3ccccc3F)cnc2n1O` [4c-6, 6-(2-fluorophenyl)-1,4-dihydroxy-1,8-naphthyridin-2(1H)-one] was 1000 ± 100 nM; that for `O=c1cc(O)c2cc(-c3ccc(C(F)(F)F)cc3)cnc2n1O` [4c-7, 1,4-dihydroxy-6-(4-(trifluoromethyl)phenyl)-1,8-naphthyridin-2(1H)-one] was 470 ± 50 nM. Turning to `CSc1ccc(-c2cnc3c(c2)c(O)cc(=O)n3O)cc1` [4c-8, 1,4-dihydroxy-6-(4-(methylthio)phenyl)-1,8-naphthyridin-2(1H)-one], the “fluorescence quenching in the FRET assay” value was “direct quenching of fluorophore”. Molecule `COc1ccc(OC)c(-c2cnc3c(c2)c(O)cc(=O)n3O)c1` [4c-9, 6-(2,5-dimethoxyphenyl)-1,4-dihydroxy-1,8-naphthyridin-2(1H)-one] displayed an IC50 of 1600 ± 100 nM. In turn, `COc1ccc(-c2cnc3c(c2)c(O)cc(=O)n3O)cc1F` [4c-10, 6-(3-fluoro-4-methoxyphenyl)-1,4-dihydroxy-1,8-naphthyridin-2(1H)-one] had a half-inhibitory concentration (IC50) of 2500 ± 500 nM. Regarding `O=c1cc(O)c2cc(-c3ccsc3)cnc2n1O` [4c-11, 1,4-dihydroxy-6-(thiophen-3-yl)-1,8-naphthyridin-2(1H)-one], the “fluorescence quenching in the FRET assay” value is recorded as “direct quenching of fluorophore”.
